Measurements published in article PMC2649750 (The Journal of pharmacology and experimental therapeutics, 2008).

Target: tubulin
Test: inhibition of [3H]vinblastine binding
Design: species or system Bos taurus

C/C=C/C(O)C(C)(C)[C@@H]1C\C=C/C=C\C=C/[C@H](OC)Cc2nc(co2)C(=O)O[C@H](C(C)(C)C(O)/C=C/C)C/C=C\C=C/C=C[C@H](OC)Cc2nc(co2)C(=O)O1 (stereo partly shown) [disorazole C1]
Ki: 4.5 ± 0.6 µM
